Entries after “also recorded” stand apart in the source; their conditions may differ. Where a SMILES comes first, the peptide text is derived from it. [ ]: non-standard residue; d: D form. The star is where a group is joined. Hexanoyl = CCCCCC(=O)*; Ahx = NCCCCCC(=O)O
Assays:
[1] = test system: scopolamine treated rats; assay: Morris water maze, scopolamine amnesia model; type: in vivo, rat
[2] = Microsomal metabolism, rat liver microsomes; type: in vitro ADME; settings: pooled rat liver microsomes, n=3
[3] = test system: 6-OHDA rat; assay: 6-OHDA lesioned rat, motor tests; type: in vivo
Experimental: FIG. 48. Dihexa restores performance in the rope hang test. After 2 weeks of 6-OHDA lesion, rats were treated with either 0.5 mg/kg or equivalent volumes of the vehicle ip.
FIG. 49. […] Baseline was calculated from 4 naïve animals to get the pre-op baseline for normal un-lesioned animals. 2 animals were lesioned with 6-OHDA in the right Hemisphere. 14 days post-op, treatment with vehicle started. 2 animals were lesioned with 6-OHDA in the right Hemisphere. 14 days post-op, treatment with Dihexa started. Animals were tested every other day. Dosing regimen (2 mg/kg by oral gavage/48 hrs).

[4] = test system: hippocampal neurons; assay: Spinogenesis in mRFP-β-actin transfected dissociated hippocampal neurons; type: cell-based, rat; settings: 10^−12 M, acute 30 minute application on DIV12; vehicle 17.4
[5] = icv, scopolamine 70 nmol, Dihexa 300 pmol, Hinge 300 pmol, vehicle 43.0 s

## CCCCCC(=O)N[C@@H](Cc1ccc(O)cc1)C(=O)N[C@H](C(=O)NCCCCCC(N)=O)[C@@H](C)CC [Dihexa, N-hexanoic-Tyr-Ile-(6)-aminohexanoic amide] (Hexanoyl-Tyr-Ile-[Ahx]-NH2)
[1]; ICV 10 pmoles (low dose)
  latency to find the pedestal in the water maze (reversal of scopolamine deficits): but not 10 pmoles
[1]; ICV 100 pmoles (high dose), daily, 8 days
  latency to find the pedestal in the water maze (reversal of scopolamine deficits): reversed scopolamine-dependent learning deficits; also recorded: completely overcome the scopolamine deficits
[1]; icv 0.1 nmol after scopolamine, days 5-8
  group latency to find the submerged platform: significantly improved performance
[1]; icv 1 nmol after scopolamine
  group latency to find the submerged platform: different from the scopolamine group
[1]; icv 1 nmol after scopolamine, vs vehicle control
  time in the target quadrant, day 9 probe trial: not different
[1]; [5]
  mean latency to find the pedestal, final day of training: 62.3 s
  mean latency to find the pedestal, fourth day of training: 63.0 s
[1]; icv, scopolamine 70 nmol, Dihexa 300 pmol, Hinge 300 pmol, vehicle 89.3 s
  mean latency to find the pedestal, day one of training: 115.2 s
[1]; ip 0.05 mg/kg after scopolamine
  group latency to find the submerged platform: not different than the scopolamine group
[1]; ip 0.25 mg/kg after scopolamine
  group latency to find the submerged platform: different than the scopolamine
[1]; ip 0.50 mg/kg after scopolamine, 0.5 mg/kg
  group latency to find the submerged platform: different than the scopolamine; also recorded: not different than the vehicle control group
[1]; ip delivery, each dose group vs scopolamine→PBS
  time in the target quadrant, day 9 probe trial: Each of the treatment groups was different than the scopolamine
[1]; oral 1.25 mg/kg (low dose), days 3-8
  latency to find the pedestal in the water maze (reversal of scopolamine deficits): partially reversed
[1]; oral 2 mg/kg/day (high dose), 2 mg/kg/day
  latency to find the pedestal in the water maze (reversal of scopolamine deficits): no different than controls; also recorded: completely overcome the scopolamine deficits; also recorded: completely reversed the scopolamine-dependent learning deficit
[1]; oral delivery, both dose groups vs scopolamine→PBS
  time in the target quadrant, day 9 probe trial: Both of the treatment groups were different than the scopolamine
[2]
  average half-life, Phase I metabolism: 8.49 h
  average intrinsic clearance (Clin): 2.72 µL/min/mg
[3]; 0.5 mg/kg ip, 2 weeks after 6-OHDA lesion
  performance in the rope hang test: completely restored the performance
[3]; 2 mg/kg by oral gavage/48 hrs, from 14 days post-op
  motor deficits in the 6-OHDA rat: reverses motor deficits
[4]
  mean spine numbers per 50 μm dendrite length: 23.9 spines per 50 μm dendrite length
